From paper PMC8563733, “The transcriptional corepressor CtBP2 serves as a metabolite sensor orchestrating hepatic glucose and lipid homeostasis” (Nature Communications, 2021)
Where two headings read alike, the source gives them in different places.

Experiments:
[1] = target: T1, CtBP2 (C-terminal binding protein 2) (Homo sapiens, UniProt P56545); assay: microscale thermophoresis; supported by DSF (Kd […])
T1 construct: full-length CtBP2 with strep-tag and HA-tag tandemly fused to the C-terminus (baculovirus)

[2] = target: T1, CtBP2 (C-terminal binding protein 2); assay: as above; remark: listed apart in the source

With `NC(=O)C1=CN([C@@H]2O[C@H](COP(=O)(O)OP(=O)(O)OC[C@H]3O[C@@H](n4cnc5c(N)ncnc54)[C@H](O)[C@@H]3O)[C@@H](O)[C@H]2O)C=CC1` [NADH] the Kd [1] was 19.5 ± 6.61 µM.
For `CCCCCCCC/C=C\CCCCCCCC(=O)SCCNC(=O)CCNC(=O)[C@H](O)C(C)(C)COP(=O)(O)OP(=O)(O)OC[C@H]1O[C@@H](n2cnc3c(N)ncnc32)[C@H](O)[C@@H]1OP(=O)(O)O` [oleoyl-CoA], the Kd [2] was 18.8 ± 1.28 µM.
